Source: PMC12122562, “Phase 1 studies of the indenoisoquinolines LMP776 and LMP744 in patients with solid tumors and lymphomas” (Cancer Chemotherapy and Pharmacology, 2025)
Values joined by “and” are separate entries in the source; they are usually repeats but may differ in a detail not shown here. Equal values may be shown once. “Also recorded” adds a separate entry of the source.

System: patients with advanced, refractory solid tumors or lymphomas
Test: Phase 1 trial of LMP744 (NCT03030417): safety, MTD, adverse events (CTCAE v4.03/v5.0)
Format: in vivo, human
Excerpt: The primary objectives of each study included establishing safety, tolerability, MTD, and recommended phase 2 dose (RP2D) of LMP776 and LMP744 as single agents. The LMP744 study included evaluation of tumor pharmacodynamics as an exploratory objective. Both trials were opened at the National Cancer Institute’s (NCI) Developmental Therapeutics Clinic, and the LMP744 trial was also opened at the University of Pittsburgh Hillman Cancer Center. Both trials used an accelerated dose escalation designs (Simon design 4 for LMP776, Simon design 3 for LMP744) to determine the MTD [30]. Dose levels are listed in Supplementary Table 1. Once the MTD was determined, additional patients were enrolled at that DL in an expansion cohort to evaluate pharmacodynamic changes as described below. LMP776 and LMP744 were administered intravenously through a central line via a 1-h infusion on days 1–5 (QDx5) in 28-day cycles. Both agents were supplied by the NCI Division of Cancer Treatment and Diagnosis (DCTD). The studies were approved by the NIH Institutional Review Board and conducted in accordance with the Declaration of Helsinki.
Patients were enrolled in either NCT01051635 evaluating LMP776 or NCT03030417 evaluating LMP744; these trials were conducted sequentially. Both trials required that patients be ≥ 18 years of age with solid tumors or lymphomas refractory to other treatments. Patients were required to have adequate performance status (Eastern Cooperative Oncology Group [ECOG] performance status ≤ 2), bone marrow function, and organ function as described in the Supplementary Methods. Patients in expansion phases at the MTD were required to have disease amenable to biopsy collection and be willing to undergo research biopsies. All patients provided written informed consent.
Tumor responses were evaluated by serial CT scans according to RECIST v1.1 criteria. CT scans were performed every other cycle during the first year, then every 3 cycles after the first year. Toxicities associated with LMP776 were evaluated according to criteria specified in CTCAE version 4.0; toxicities associated with LMP744 were evaluated according to the criteria specified in CTCAE version 4.03 (on or before March 31, 2018) or version 5.0 (on or after April 1, 2018). Criteria for all versions can be found at https://ctep.cancer.gov/protocolDevelopment/electronic_applications/ctc.htm. Any patient who received a dose of either agent was considered eligible for toxicity evaluation.

[1] = all DLs, highest grade per patient

Compound: COc1cc2c3c(n(CCCNCCO)c(=O)c2cc1OC)-c1cc2c(cc1C3=O)OCO2 [LMP744]
- Grade 3 non-hematologic DLTs (DL7 (260 mg/m^2/day)): elevated ALT, AST, and GGT in one patient; also recorded: nausea, vomiting, and dehydration
- Maximum tolerated dose (MTD) (IV QDx5, 28-day cycles (DL6)): 190 mg/m^2/day
- Anemia, grade ≥ 2, prevalence (across all DLs): 36%
- Fatigue, grade ≥ 2, prevalence (across all DLs): 22%
- Lymphopenia, grade ≥ 2, prevalence (across all DLs): 39%
- Alanine aminotransferase increased, grade ≥ 2, Total (%) (all DLs): 2 (6)
- Alkaline phosphatase increased, grade ≥ 2, Total (%) (all DLs): 3 (9)
- Anorexia, grade ≥ 2, Total (%) (all DLs): 2 (6)
- Aspartate aminotransferase increased, grade ≥ 2, Total (%) (all DLs): 2 (6)
- Blood bilirubin increased, grade ≥ 2, Total (%) (all DLs): 2 (6)
- Constipation, grade ≥ 2, Total (%) (all DLs): 1 (3)
- Creatinine increased, grade ≥ 2, Total (%) (all DLs): 5 (14)
- Dehydration, grade ≥ 2, Total (%) (all DLs): 4 (11)
- Diarrhea, grade ≥ 2, Total (%) (all DLs): 1 (3)
- Dry skin, grade ≥ 2, Total (%) (all DLs): 1 (3)
- Edema - limbs, grade ≥ 2, Total (%) (all DLs): 1 (3)
- Febrile Neutropenia, grade ≥ 2, Total (%) (all DLs): 1 (3)
- GGT increased, grade ≥ 2, Total (%) (all DLs): 6 (17)
- Hyperglycemia, grade ≥ 2, Total (%) (all DLs): 1 (3)
- Hypoalbuminemia, grade ≥ 2, Total (%) (all DLs): 1 (3)
- Hypokalemia, grade ≥ 2, Total (%) (all DLs): 2 (6)
- Hypomagnesemia, grade ≥ 2, Total (%) (all DLs): 2 (6)
- Hyponatremia, grade ≥ 2, Total (%) (all DLs): 1 (3)
- Hypophosphatemia, grade ≥ 2, Total (%) (all DLs): 6 (17)
- Hypothyroidism, grade ≥ 2, Total (%) (all DLs): 1 (3)
- Hypoxia, grade ≥ 2, Total (%) (all DLs): 1 (3)
- INR increased, grade ≥ 2, Total (%) (all DLs): 1 (3)
- Infections and infestations - NOS, grade ≥ 2, Total (%) (all DLs): 2 (6)
- Infusion site extravasation, grade ≥ 2, Total (%) (all DLs): 1 (3)
- Leukopenia (White blood cell count decreased), grade ≥ 2, Total (%) (all DLs): 5 (14)
- Nausea, grade ≥ 2, Total (%) (all DLs): 6 (17)
- Neutropenia, grade ≥ 2, Total (%) (all DLs): 5 (14)
- Pain - biopsy site, grade ≥ 2, Total (%) (all DLs): 1 (3)
- Platelet count decreased, grade ≥ 2, Total (%) (all DLs): 2 (6)
- Proteinuria, grade ≥ 2, Total (%) (all DLs): 2 (6)
- Sudden death - NOS, Total (%) (all DLs): 1 (3)
- Thrombophlebitis - superficial, grade ≥ 2, Total (%) (all DLs): 1 (3)
- Urinary tract infection, grade ≥ 2, Total (%) (all DLs): 1 (3)
- Vomiting, grade ≥ 2, Total (%) (all DLs): 6 (17)
- Weight loss, grade ≥ 2, Total (%) (all DLs): 4 (11)
- White blood cell count increased, grade ≥ 2, Total (%) (all DLs): 1 (3)
- Anemia, grade ≥ 2, Total (%) [1]: 13 (37) and 13 (36)
- Fatigue, grade ≥ 2, Total (%) [1]: 8 (23) and 8 (22)
- Patients requiring dose reductions (enrolled at DL6 (n = 6) or DL7 (n = 5)): Eleven
- Alanine aminotransferase increased, patients (grade 2, DL1-DL5): 1
- Alkaline phosphatase increased, patients (grade 2, DL1-DL5): 1
- Anemia, patients (grade 2, DL1-DL5): 2
- Edema - limbs, patients (grade 2, DL1-DL5): 1
- GGT increased, patients (grade 2, DL1-DL5): 1
- Hypophosphatemia, patients (grade 2, DL1-DL5): 1
- Proteinuria, patients (grade 2, DL1-DL5): 1
- Vomiting, patients (grade 2, DL1-DL5): 1
- Lymphopenia (Lymphocyte count decreased), patients (grade 2, DL1-DL5 (n = 7)): 1
- Alanine aminotransferase increased, patients (grade 2, DL6): 1
- Alkaline phosphatase increased, patients (grade 2, DL6): 1
- Anemia, patients (grade 2, DL6): 4
- Anorexia, patients (grade 2, DL6): 1
- Aspartate aminotransferase increased, patients (grade 2, DL6): 1
- Blood bilirubin increased, patients (grade 2, DL6): 1
- Constipation, patients (grade 2, DL6): 1
- Creatinine increased, patients (grade 2, DL6): 3
- Dehydration, patients (grade 2, DL6): 1
- Diarrhea, patients (grade 2, DL6): 1
- Dry skin, patients (grade 2, DL6): 1
- Fatigue, patients (grade 2, DL6): 6
- GGT increased, patients (grade 2, DL6): 3
- Hyperglycemia, patients (grade 2, DL6): 1
- Hypoalbuminemia, patients (grade 2, DL6): 1
- Hypomagnesemia, patients (grade 2, DL6): 1
- Hyponatremia, patients (grade 2, DL6): 1
- Hypophosphatemia, patients (grade 2, DL6): 4
- Hypothyroidism, patients (grade 2, DL6): 1
- Infections and infestations - NOS, patients (grade 2, DL6): 2
- Infusion site extravasation, patients (grade 2, DL6): 1
- Leukopenia (White blood cell count decreased), patients (grade 2, DL6): 3
- Nausea, patients (grade 2, DL6): 3
- Neutropenia, patients (grade 2, DL6): 3
- Pain - biopsy site, patients (grade 2, DL6): 1
- Platelet count decreased, patients (grade 2, DL6): 1
- Proteinuria, patients (grade 2, DL6): 1
- Thrombophlebitis - superficial, patients (grade 2, DL6): 1
- Urinary tract infection, patients (grade 2, DL6): 1
- Vomiting, patients (grade 2, DL6): 4
- Weight loss, patients (grade 2, DL6): 4
- White blood cell count increased, patients (grade 2, DL6): 1
- Lymphopenia (Lymphocyte count decreased), patients (grade 2, DL6 (n = 18; suppl. n=17)): 1
- Alkaline phosphatase increased, patients (grade 2, DL7): 1
- Anemia, patients (grade 2, DL7): 7
- Anorexia, patients (grade 2, DL7): 1
- Blood bilirubin increased, patients (grade 2, DL7): 1
- Creatinine increased, patients (grade 2, DL7): 2
- Dehydration, patients (grade 2, DL7): 1
- Fatigue, patients (grade 2, DL7): 2
- Hypomagnesemia, patients (grade 2, DL7): 1
- Hypophosphatemia, patients (grade 2, DL7): 1
- INR increased, patients (grade 2, DL7): 1
- Leukopenia (White blood cell count decreased), patients (grade 2, DL7): 1
- Nausea, patients (grade 2, DL7): 1
- Platelet count decreased, patients (grade 2, DL7): 1
- Vomiting, patients (grade 2, DL7): 1
- Lymphopenia (Lymphocyte count decreased), patients (grade 2, DL7 (n = 11)): 4
- Alanine aminotransferase increased, patients (grade 2, all DLs (n=35)): 2
- Alkaline phosphatase increased, patients (grade 2, all DLs (n=35)): 3
- Anemia, patients (grade 2, all DLs (n=35)): 13
- Anorexia, patients (grade 2, all DLs (n=35)): 2
- Aspartate aminotransferase increased, patients (grade 2, all DLs (n=35)): 1
- Blood bilirubin increased, patients (grade 2, all DLs (n=35)): 2
- Constipation, patients (grade 2, all DLs (n=35)): 1
- Creatinine increased, patients (grade 2, all DLs (n=35)): 5
- Dehydration, patients (grade 2, all DLs (n=35)): 2
- Diarrhea, patients (grade 2, all DLs (n=35)): 1
- Dry skin, patients (grade 2, all DLs (n=35)): 1
- Edema - limbs, patients (grade 2, all DLs (n=35)): 1
- Fatigue, patients (grade 2, all DLs (n=35)): 8
- GGT increased, patients (grade 2, all DLs (n=35)): 4
- Hyperglycemia, patients (grade 2, all DLs (n=35)): 1
- Hypoalbuminemia, patients (grade 2, all DLs (n=35)): 1
- Hypomagnesemia, patients (grade 2, all DLs (n=35)): 2
- Hyponatremia, patients (grade 2, all DLs (n=35)): 1
- Hypophosphatemia, patients (grade 2, all DLs (n=35)): 6
- Hypothyroidism, patients (grade 2, all DLs (n=35)): 1
- INR increased, patients (grade 2, all DLs (n=35)): 1
- Infections and infestations - NOS, patients (grade 2, all DLs (n=35)): 2
- Infusion site extravasation, patients (grade 2, all DLs (n=35)): 1
- Lymphocyte count decreased, patients (grade 2, all DLs (n=35)): 6
- Nausea, patients (grade 2, all DLs (n=35)): 4
- Neutropenia, patients (grade 2, all DLs (n=35)): 3
- Platelet count decreased, patients (grade 2, all DLs (n=35)): 3
- Proteinuria, patients (grade 2, all DLs (n=35)): 2
- Thrombophlebitis - superficial, patients (grade 2, all DLs (n=35)): 1
- Urinary tract infection, patients (grade 2, all DLs (n=35)): 1
- Vomiting, patients (grade 2, all DLs (n=35)): 6
- Weight loss, patients (grade 2, all DLs (n=35)): 4
- White blood cell count decreased, patients (grade 2, all DLs (n=35)): 4
- White blood cell count increased, patients (grade 2, all DLs (n=35)): 1
- Dehydration, patients (grade 3, DL6): 1
- Febrile Neutropenia, patients (grade 3, DL6): 1
- GGT increased, patients (grade 3, DL6): 1
- Hypokalemia, patients (grade 3, DL6): 1
- Hypoxia, patients (grade 3, DL6): 1
- Lymphopenia (Lymphocyte count decreased), patients (grade 3, DL6): 5
- Nausea, patients (grade 3, DL6): 1
- Neutropenia, patients (grade 3, DL6): 1
- Aspartate aminotransferase increased, patients (grade 3, DL7): 1
- Dehydration, patients (grade 3, DL7): 1
- GGT increased, patients (grade 3, DL7): 1
- Hypokalemia, patients (grade 3, DL7): 1
- Lymphopenia (Lymphocyte count decreased), patients (grade 3, DL7): 2
- Nausea, patients (grade 3, DL7): 1
- Aspartate aminotransferase increased, patients (grade 3, all DLs (n=35)): 1
- Dehydration, patients (grade 3, all DLs (n=35)): 1
- Febrile Neutropenia, patients (grade 3, all DLs (n=35)): 1
- GGT increased, patients (grade 3, all DLs (n=35)): 2
- Hypokalemia, patients (grade 3, all DLs (n=35)): 2
- Hypoxia, patients (grade 3, all DLs (n=35)): 1
- Lymphocyte count decreased, patients (grade 3, all DLs (n=35)): 7
- Nausea, patients (grade 3, all DLs (n=35)): 2
- Neutropenia, patients (grade 3, all DLs (n=35)): 1
- Leukopenia (White blood cell count decreased), patients (grade 4, DL6): 1
- Lymphopenia (Lymphocyte count decreased), patients (grade 4, DL6): 1
- Neutropenia, patients (grade 4, DL6): 1
- Lymphocyte count decreased, patients (grade 4, all DLs (n=35)): 1
- Neutropenia, patients (grade 4, all DLs (n=35)): 1
- White blood cell count decreased, patients (grade 4, all DLs (n=35)): 1
- Sudden death - NOS, patients (grade 5, DL7): 1
- Death considered possibly related to treatment (one patient, DL7): grade 5 sudden death – NOS; also recorded: died of a pulmonary embolism
